Laboratory results published in patent publication US20140248361A1, “HERBAL EXTRACT COMPOSITION AND A PROCESS THEREOF” (PRASAN SOLUTIONS (INDIA) PVT LTD, priority 2012, published 2014).
Each block holds one compound with its values, some of them ahead of it.

Assays:
[1] = Oil stability index (Rancimat) of apricot oil; conditions: for Induction Time at 200 ppm: in h
Procedure: (§2) As used herein, ‘Oil Stability Index (OSI)’ is an American Oil Chemists Society (AOCS) approved method that determines the relative resistance of fat and oil samples to oxidation, which is defined by the following equation—
(§3) The oil stability index is determined using the Metrohm's Rancimat (Metrohm 743 Rancimat).
4.0 g of apricot oil is weighed into the reaction vessel. The reaction vessel filled with oil is placed in a heating block. The temperature of the block is maintained at 100° C., 120° C. and 140° C., respectively. The oil is heated at the said temperatures, followed by passing air at a flow rate of 20 L/h. Flowing of air through the oil produces peroxides during primary oxidation and organic acids having low molecular weight, aldehydes and ketones with typical rancid odor during the secondary oxidation phase. These compounds are conveyed by the air flow into measurement vessel containing distilled water where conductivity is being checked continuously by sensor.
The above experiment is repeated by adding 200 ppm of BHA (sample-B), 200 ppm of BHT (sample-B1), 500 ppm of alpha tocopherol (sample-B2) and PRESOL at 200 ppm, 500 ppm and 1000 ppm, respectively to apricot oil.

[2] = Oil stability index (Rancimat) of almond oil; conditions: for Induction Time: in h
Procedure: as §3
4.0 g of almond oil is weighed into the reaction vessel. The reaction vessel filled with oil is placed in a heating block. The temperature of the block is maintained at 100° C., 120° C. and 140° C., respectively. The oil is heated at the said temperatures, followed by passing air at a flow rate of 20 L/h. […] These compounds are conveyed by the air flow into measurement vessel containing distilled water where conductivity is being checked continuously by sensor.
The above experiment is repeated by adding 200 ppm of BHA (sample-B), 200 ppm of BHT (sample-B1), 500 ppm of alpha tocopherol (sample-B2) and PRESOL at 200 ppm, 500 ppm and 1000 ppm, respectively to almond oil. From the above experiment, oxidative stability index of untreated oil (control) and treated oil is calculated and the below table illustrates the induction time and the obtained oxidative stability.

[3] = Oil stability index (Rancimat) of fish oil; conditions: 200 ppm; for Induction Time: in h
Procedure: 4.0 g of fish oil is weighed into the reaction vessel. […] The temperature of the block is maintained at 60° C., 70° C. and 80° C., respectively.

[4] = Peroxide value of fish oil at 10° C.
Procedure: The shelf life is calculated using Rancimat shelf life calculator. The shelf life of oil is studied by carrying out chemical analysis, which include studying peroxide value (represents extent of primary oxidation), Para-anisidine value (represents extent of secondary oxidation) and totox value (reflects total oxidation of oil). […] […] The untreated oil is the control sample without any antioxidant.

[5] = Estimation of shelf life of sunflower oil (Rancimat temperature extrapolation); conditions: 200 ppm
Description: (§4) This is an aid for estimating the shelf life of oils and fats. The extrapolation makes use of the relationship between the measured induction time and the temperature given by van't Hoff's law. Several measurements are made at different temperatures and then extrapolated to the storage temperature. The values so obtained allow estimation of the storage stability of the oil or fat containing PRESOL.

[6] = Oil stability index (Rancimat) of palm oil; conditions: 200 ppm
Procedure: as §2, §3
4.0 g of palm oil is weighed into the reaction vessel. The reaction vessel filled with oil is placed in a heating block. The temperature of the block is maintained at 100° C., 120° C. and 140° C., respectively. The oil is heated at the said temperatures, followed by passing air at a flow rate of 20 L/h. Flowing of air through the oil produces peroxides during primary oxidation and organic acids having low molecular weight, aldehydes and ketones with typical rancid odor during the secondary oxidation phase. These compounds are conveyed by the air flow into measurement vessel containing distilled water where conductivity is being checked continuously by sensor.

[7] = Frying cycle analysis of sunflower oil (total polar compounds); conditions: for Total Polar compounds of sunflower oil: 200 ppm
Procedure: (§1) Palm oil and sunflower oil with antioxidants added to it are obtained from a local refinery. Frying studies are carried out with control oil and by adding TBHQ (Sample A), BHA (Sample B), GT Pulverized (Sample C), ROS (Sample D), GT Cryo grinded (Sample E), GT Crude Extract (Sample F) and PRESOL, respectively to the oils. Experiments are carried out a concentration of 200 ppm and 500 ppm. Fresh potatoes of less reduced sugar content variety are used throughout the experiment which is purchased form a local supermarket. Oil samples are withdrawn from the fryer at the end of every day and stored at −4° C. until it is tested for quality parameters viz, total polar compounds. Polar compounds present in oil and fats are measured by column chromatography using standard method, ES ISO 8420:2012.

[8] = Frying cycle analysis of palm oil (total polar compounds); conditions: palm oil
Procedure: as §1

[9] = Peroxide value of palm oil on storage
Procedure: (§5) The shelf life of oil is studied by carrying out chemical analysis, which include studying peroxide value (represents extent of primary oxidation), Para-anisidine value (represents extent of secondary oxidation) and totox value (reflects total oxidation of oil). These parameters are determined for 1 kg of untreated oil and treated oil at every 15 days interval for samples stored at ambient temperature and at every 7 days interval for samples stored at 50° C. The treated oil being, the oil upon addition of 200 ppm of TBHQ (sample-A), 200 ppm of BHA (sample-B), 200 ppm and 500 ppm of pulverized green tea extract with 90% polyphenol (sample-C), 200 ppm and 500 ppm of rosemary extract (sample-D), 200 ppm and 500 ppm of green tea extract after cryogenic grinding (sample-E), 200 ppm and 500 ppm of crude green tea extract (sample-F) and PRESOL at 200 ppm and 500 ppm. The untreated oil is the control sample without any antioxidant.
(§6) The threshold limit for per oxide value under which oil can be used for safe consumption is 10 meq of O2/Kg oil. Similarly, the threshold limit of para-anisidine value and Totox value is 10 and 30, respectively.

[10] = Effect of particle size on antioxidant activity (Rancimat induction time) in palm oil; conditions: 200 ppm in palm oil; Rancimat 120° C.
Procedure: (§7) Effect of particle size analysis on antioxidant activity is analysed with the help of Rancimat (Metrohm 743) which gives oxidative stability index based on the induction time (h). Rancimat analysis is carried out at two different temperature in order to set relationship between induction time and temperature of the studies.
(§8) In this, we have analyzed the particle size of samples with the help of Particle Size Analyzer (Microtrac, S3500) and its antioxidant activity with the help of Rancimat (Metrohm 743).

[11] = Totox value of palm oil on storage; conditions: for days after which Totox value crosses threshold limit: threshold 30
Procedure: as §5, §6

[12] = Estimation of shelf life of palm oil (Rancimat temperature extrapolation); conditions: 200 ppm
Description: as §4

[13] = Effect of particle size on antioxidant activity (Rancimat induction time) in sunflower oil; conditions: 200 ppm in sunflower oil; Rancimat 100° C.
Procedure: as §7, §8

[14] = Oil stability index (Rancimat) of sunflower oil; conditions: 200 ppm
Procedure: as §2, §3
4.0 g of sunflower oil is weighed into the reaction vessel. The reaction vessel filled with oil is placed in a heating block. The temperature of the block is maintained at 80° C., 100° C. and 120° C., respectively. The oil is heated at the said temperatures, followed by passing air at a flow rate of 20 L/h. Flowing of air through the oil produces peroxides during primary oxidation and organic acids having low molecular weight, aldehydes and ketones with typical rancid odor during the secondary oxidation phase. These compounds are conveyed by the air flow into measurement vessel containing distilled water where conductivity is being checked continuously by sensor.

[15] = Shelf life of canola oil; conditions: 200 ppm
[16] = Para-anisidine value of palm oil on storage
[17] = ambient temperature, day 0, 200 ppm
[18] = ambient temperature, day 15, 200 ppm
[19] = ambient temperature, day 30, 200 ppm
[20] = ambient temperature, day 45, 200 ppm
[21] = ambient temperature, day 60, 200 ppm
[22] = ambient temperature, day 75, 200 ppm
[23] = ambient temperature, day 90, 200 ppm
[24] = ambient temperature, day 105, 200 ppm
[25] = ambient temperature, day 120, 200 ppm
[26] = ambient temperature, day 135, 200 ppm
[27] = ambient temperature, day 150, 200 ppm
[28] = ambient temperature, day 165, 200 ppm
[29] = ambient temperature, day 180, 200 ppm

Compound: Cc1cc(C(C)(C)C)c(O)c(C(C)(C)C)c1 [Sample B1, butylated hydroxyl toluene]
Induction Time at 200 ppm ([1]; 100° C., 200 ppm): 26.96
Induction Time at 200 ppm ([1]; 120° C., 200 ppm): 5.93
Induction Time at 200 ppm ([1]; 140° C., 200 ppm): 1.49
Induction Time ([2]; 100° C., 200 ppm): 24.98
Induction Time ([2]; 120° C., 200 ppm): 5.89
Induction Time ([2]; 140° C., 200 ppm): 1.48

Oxidative Stability Index (OSI) ([1]; 100° C., 500 ppm): 0.82
Oxidative Stability Index (OSI) ([1]; 120° C., 500 ppm): 0.86
Oxidative Stability Index (OSI) ([1]; 140° C., 500 ppm): 0.89
Oxidative Stability Index (OSI) ([3]; 60° C.): 2.81
Oxidative Stability Index (OSI) ([3]; 70° C.): 2.76
Oxidative Stability Index (OSI) ([3]; 80° C.): 2.76
Oxidative Stability Index (OSI) ([2]; 100° C., 500 ppm): 1.11
Oxidative Stability Index (OSI) ([2]; 120° C., 500 ppm): 1.13
Oxidative Stability Index (OSI) ([2]; 140° C., 500 ppm): 1.04
Compound: Cc1c(C)c2c(c(C)c1O)CC[C@@](C)(CCC[C@H](C)CCC[C@H](C)CCCC(C)C)O2 [Sample B2, alpha tocopherol]
Induction Time at 200 ppm ([1]; 100° C., 500 ppm): 22.06
Induction Time at 200 ppm ([1]; 120° C., 500 ppm): 5.06
Induction Time at 200 ppm ([1]; 140° C., 500 ppm): 1.32
Induction Time ([3]; 60° C.): 27.68
Induction Time ([3]; 70° C.): 13.74
Induction Time ([3]; 80° C.): 6.78
days after which peroxide value crosses the threshold limit of 8 meq/kg ([4]; 200 ppm): 21 days
Peroxide value ([4]; day 0, 200 ppm): 1.74
Peroxide value ([4]; day 3, 200 ppm): 2.13
Peroxide value ([4]; day 6, 200 ppm): 3.33
Peroxide value ([4]; day 9, 200 ppm): 4.71
Peroxide value ([4]; day 12, 200 ppm): 5.41
Peroxide value ([4]; day 15, 200 ppm): 6.82
Peroxide value ([4]; day 18, 200 ppm): 7.84
Peroxide value ([4]; day 21, 200 ppm): 9.02
Peroxide value ([4]; day 24, 200 ppm): 10.32
Peroxide value ([4]; day 27, 200 ppm): 12.02
Peroxide value ([4]; day 30, 200 ppm): 13.01
Peroxide value ([4]; day 33, 200 ppm): 15.44
Peroxide value ([4]; day 36, 200 ppm): 17.16
Peroxide value ([4]; day 39, 200 ppm): 18.94
Peroxide value ([4]; day 42, 200 ppm): 20.86
Peroxide value ([4]; day 45, 200 ppm): 25.09
Peroxide value ([4]; day 48, 200 ppm): 28.71
Peroxide value ([4]; day 51, 200 ppm): 33.89
Peroxide value ([4]; day 54, 200 ppm): 39.01
Peroxide value ([4]; day 57, 200 ppm): 44.14
Peroxide value ([4]; day 60, 200 ppm): 49.22
Peroxide value ([4]; day 63, 200 ppm): 50.06
Peroxide value ([4]; day 66, 200 ppm): 51.22
Peroxide value ([4]; day 69, 200 ppm): 50.85
Peroxide value ([4]; day 72, 200 ppm): 50.13
Peroxide value ([4]; day 75, 200 ppm): 49.72
Induction Time ([2]; 100° C., 500 ppm): 24.51
Induction Time ([2]; 120° C., 500 ppm): 5.73
Induction Time ([2]; 140° C., 500 ppm): 1.43

Compound: COc1ccc(O)c(C(C)(C)C)c1 [Sample B, butylated hydroxyanisole]
Shelf Life (days) at 30° C. [5]: 87.2 days
Oxidative Stability Index (OSI) ([1]; 100° C., 200 ppm): 1.08
Induction Time at 200 ppm ([1]; 100° C., 200 ppm): 29.16
Oxidative Stability Index (OSI) ([1]; 120° C., 200 ppm): 1.13
Induction Time at 200 ppm ([1]; 120° C., 200 ppm): 6.66
Oxidative Stability Index (OSI) ([1]; 140° C., 200 ppm): 1.06
Induction Time at 200 ppm ([1]; 140° C., 200 ppm): 1.57
Induction Time ([6]; 100° C.): 43.33 h
Oxidative Stability Index (OSI) ([6]; 100° C.): 1.04
Induction Time ([6]; 120° C.): 9.88 h
Oxidative Stability Index (OSI) ([6]; 120° C.): 1.02
Induction Time ([6]; 140° C.): 2.51 h
Oxidative Stability Index (OSI) ([6]; 140° C.): 1.02
Total Polar compounds of sunflower oil ([7]; frying cycle 0): 3.515
Total Polar compounds of sunflower oil ([7]; frying cycle 8): 6.958
Total Polar compounds of sunflower oil ([7]; frying cycle 16): 14.124
Total Polar compounds of sunflower oil ([7]; frying cycle 24): 20.105
Total Polar compounds of sunflower oil ([7]; frying cycle 32): 26.085
Total Polar compounds of sunflower oil ([7]; frying cycle 40): 31.692
frying cycle after which threshold limit for total polar compounds is crossed ([7]; sunflower oil): 40 cycle
frying cycle after which threshold limit for total polar compounds is crossed [8]: 40 cycle
Peroxide value ([9]; 50° C., day 0, 200 ppm): 0.482
Peroxide value ([9]; 50° C., day 7, 200 ppm): 4.735
Peroxide value ([9]; 50° C., day 15, 200 ppm): 9.973
Peroxide value ([9]; 50° C., day 22, 200 ppm): 13.062
Peroxide value ([9]; 50° C., day 30, 200 ppm): 16.45
Peroxide value ([9]; 50° C., day 37, 200 ppm): 35.595
Peroxide value ([9]; 50° C., day 45, 200 ppm): 60.884
Peroxide value ([9]; 50° C., day 52, 200 ppm): 51.15
Peroxide value ([9]; 50° C., day 60, 200 ppm): 42.269
Peroxide value ([9]; 50° C., day 67, 200 ppm): 34.974
Peroxide value ([9]; 50° C., day 75, 200 ppm): 25.576
Peroxide value ([9]; 50° C., day 82, 200 ppm): 11.31
Peroxide value ([9]; 50° C., day 90, 200 ppm): 15.231
Peroxide value [9, 17]: 0.465
Peroxide value [9, 18]: 0.868
Peroxide value [9, 19]: 1.691
Peroxide value [9, 20]: 2.684
Peroxide value [9, 21]: 4.034
Peroxide value [9, 22]: 4.748
Peroxide value [9, 23]: 5.034
Peroxide value [9, 24]: 5.316
Peroxide value [9, 25]: 6.307
Peroxide value [9, 26]: 7.887
Peroxide value [9, 27]: 8.617
Peroxide value [9, 28]: 11.307
Peroxide value [9, 29]: 12.75
days after which peroxide value crosses threshold limit ([9]; ambient temperature, threshold 10 meq of O2/Kg oil): 165 days
Induction Period (h) of PO at 120° C. [10]: 9.88 h
days after which Totox value crosses threshold limit ([11]; 50° C.): 180 days
Totox value [11, 17]: 3.497
Totox value [11, 18]: 4.338
Totox value [11, 19]: 6.561
Totox value [11, 20]: 8.268
Totox value [11, 21]: 10.827
Totox value [11, 22]: 12.449
Totox value [11, 23]: 13.181
Totox value [11, 24]: 14.088
Totox value [11, 25]: 16.114
Totox value [11, 26]: 19.368
Totox value [11, 27]: 20.994
Totox value [11, 28]: 26.783
Totox value [11, 29]: 29.993
days after which Totox value crosses threshold limit ([11]; ambient temperature): 180 days
Shelf Life (days) at 30° C. [12]: 260.9 days
Oxidative Stability Index (OSI) ([2]; 100° C., 200 ppm): 1.14
Induction Time ([2]; 100° C., 200 ppm): 25.14
Oxidative Stability Index (OSI) ([2]; 120° C., 200 ppm): 1.21
Induction Time ([2]; 120° C., 200 ppm): 6.11
Oxidative Stability Index (OSI) ([2]; 140° C., 200 ppm): 1.11
Induction Time ([2]; 140° C., 200 ppm): 1.52
Induction Period (h) of SFO 100° C. [13]: 13.33 h
Induction Time ([14]; 80° C.): 50.39 h
Oxidative Stability Index (OSI) ([14]; 80° C.): 1.38
Induction Time ([14]; 100° C.): 13.33 h
Oxidative Stability Index (OSI) ([14]; 100° C.): 1.43
Induction Time ([14]; 120° C.): 2.64 h
Oxidative Stability Index (OSI) ([14]; 120° C.): 1.12
Shelf Life (No. Of Days) [15]: 37 days
Para-anisidine value ([16]; 50° C., day 0, 200 ppm): 2.69
Para-anisidine value ([16]; 50° C., day 7, 200 ppm): 3.186
Para-anisidine value ([16]; 50° C., day 15, 200 ppm): 4.011
Para-anisidine value ([16]; 50° C., day 22, 200 ppm): 4.204
Para-anisidine value ([16]; 50° C., day 30, 200 ppm): 5.542
Para-anisidine value ([16]; 50° C., day 37, 200 ppm): 5.617
Para-anisidine value ([16]; 50° C., day 45, 200 ppm): 5.794
Para-anisidine value ([16]; 50° C., day 52, 200 ppm): 5.827
Para-anisidine value ([16]; 50° C., day 60, 200 ppm): 6.165
Para-anisidine value ([16]; 50° C., day 67, 200 ppm): 6.22
Para-anisidine value ([16]; 50° C., day 75, 200 ppm): 6.269
Para-anisidine value ([16]; 50° C., day 82, 200 ppm): 6.503
Para-anisidine value ([16]; 50° C., day 90, 200 ppm): 6.657
Para-anisidine value [16, 17]: 2.566
Para-anisidine value [16, 18]: 2.602
Para-anisidine value [16, 19]: 3.18
Para-anisidine value [16, 20]: 2.899
Para-anisidine value [16, 21]: 2.759
Para-anisidine value [16, 22]: 2.952
Para-anisidine value [16, 23]: 3.113
Para-anisidine value [16, 24]: 3.455
Para-anisidine value [16, 25]: 3.499
Para-anisidine value [16, 26]: 3.593
Para-anisidine value [16, 27]: 3.759
Para-anisidine value [16, 28]: 4.169
Para-anisidine value [16, 29]: 4.493
